# According to patent US10676431B2, “Phenylpyrrolidinone formyl peptide 2 receptor agonists” (BRISTOL-MYERS SQUIBB COMPANY, priority 2018, dated 2020):
# pEC50: −log10 of the molar value.
# How the values were obtained:
# [1] = target: human FPR2 (Homo sapiens (Human), UniProt P25090); test: FPR2 cyclic adenosine monophosphate (cAMP) assay; format: cell-based; settings: CHO cells overexpressing human FPR2; forskolin 5 μM, IBMX 200 μM; inhibition of cAMP production, HTRF; read-out: hFPR2 cAMP2 EC50
# Chain of human FPR2 (P25090 whole entry): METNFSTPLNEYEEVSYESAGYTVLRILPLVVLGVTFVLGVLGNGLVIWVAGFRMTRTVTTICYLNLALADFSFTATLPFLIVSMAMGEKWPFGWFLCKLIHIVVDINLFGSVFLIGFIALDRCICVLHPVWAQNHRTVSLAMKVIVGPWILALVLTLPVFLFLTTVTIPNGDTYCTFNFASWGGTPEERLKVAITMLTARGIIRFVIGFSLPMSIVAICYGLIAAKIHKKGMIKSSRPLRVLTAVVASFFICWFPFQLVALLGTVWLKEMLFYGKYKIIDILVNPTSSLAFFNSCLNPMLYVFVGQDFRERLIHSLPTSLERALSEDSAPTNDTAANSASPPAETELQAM
# Outline: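 CHO cells overexpressing human FPR2 (2,000/well) or FPR1 (4,000/well) incubated 30 min at room temperature with compound (0.020 nM–100 μM, 1% DMSO), IBMX 200 μM and forskolin (5 μM for FPR2, 10 μM for FPR1). Intracellular cAMP read by HTRF against a cAMP standard curve; inhibition of cAMP production fitted to a 4-parameter logistic.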
# [2] = target: human FPR1 (Homo sapiens (Human), UniProt P21462); test: FPR1 cyclic adenosine monophosphate (cAMP) assay; format: cell-based; settings: CHO cells overexpressing human FPR1; forskolin 10 μM, IBMX 200 μM; inhibition of cAMP production, HTRF; read-out: hFPR1 cAMP EC50
# Chain of human FPR1 (P21462 whole entry): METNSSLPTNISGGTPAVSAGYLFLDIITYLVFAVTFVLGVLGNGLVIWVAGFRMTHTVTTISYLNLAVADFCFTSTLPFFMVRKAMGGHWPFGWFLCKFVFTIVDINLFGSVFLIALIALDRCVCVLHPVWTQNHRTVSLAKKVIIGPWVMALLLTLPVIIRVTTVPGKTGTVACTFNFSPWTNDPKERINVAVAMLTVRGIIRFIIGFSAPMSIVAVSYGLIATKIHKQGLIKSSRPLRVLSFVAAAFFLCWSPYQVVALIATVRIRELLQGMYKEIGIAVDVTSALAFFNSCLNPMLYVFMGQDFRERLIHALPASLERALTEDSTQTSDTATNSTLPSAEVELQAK
# Outline: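 CHO cells overexpressing human FPR1 (4,000 per well) were incubated 30 min at room temperature with compound (0.020 nM–100 μM, 1% DMSO), 10 μM forskolin and 200 μM IBMX. Intracellular cAMP was read by HTRF. Inhibition of cAMP production was fitted to a 4-parameter logistic equation.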
Compound,pEC50 [1],pEC50 [2]
CS(=O)(=O)Nc1ccccc1-c1ccc(N2CC[C@@H](NC(=O)Nc3ccc(Cl)cc3F)C2=O)c(F)c1F [Example 5],9.17,6.64
CC(C)c1cc(-c2ccccc2P(C)(C)=O)ccc1N1CC[C@@H](NC(=O)Nc2ccc(Cl)cc2F)C1=O [Example 45],8.52,6.85
CC1(C)CN(c2ccc(-c3ccccc3P(C)(C)=O)c(F)c2F)C(=O)[C@@H]1NC(=O)Nc1ccc(Cl)cc1F [Example 103],9.24,6.46
CP(C)(=O)c1ccccc1-c1ccc(N2CC[C@@H](NC(=O)Nc3cccc(Cl)c3)C2=O)c(F)c1F [Example 134],8.60,2.82
CP(C)(=O)c1ccccc1-c1ccc(N2CC[C@@H](NC(=O)Nc3ccc(C(F)(F)F)cc3F)C2=O)c(F)c1OC(F)(F)F [Example 88],8.28,8.31
CP(C)(=O)c1ccccc1-c1ccc(N2CC[C@@H](NC(=O)Nc3ccc(Cl)cc3F)C2=O)c(Cl)c1F [Example 99],9.10,6.62
CC1(C)CN(c2ccc(-c3cccnc3P(C)(C)=O)c(F)c2F)C(=O)[C@@H]1NC(=O)Nc1ccc(Cl)cc1F [Example 113],9.41,6.23
CP(C)(=O)c1ccccc1-c1ccc(N2CC[C@@H](NC(=O)Nc3ccc(Cl)cc3F)C2=O)c(Cl)c1Cl [Example 78],8.92,7.35
"CP(C)(=O)c1ccccc1-c1ccc(N2CC[C@@H](NC(=O)Nc3ccc(C(F)(F)F)cc3F)C2=O)c(F)c1F [Example 57, (R)-1-(1-(2′-(dimethylphosphoryl)-2,3-difluoro-[1,1′-biphenyl]-4-yl)-2-oxopyrrolidin-3-yl)-3-(2-fluoro-4-(trifluoromethyl)phenyl)urea]",9.02,6.00
CP(C)(=O)c1ccccc1-c1ccc(N2CC[C@@H](NC(=O)Nc3ccc(Cl)cc3F)C2=O)c2c1OC(F)(F)O2 [Example 106],8.51,8.46
CP(C)(=O)c1ccccc1-c1cc(F)c(N2CC[C@@H](NC(=O)Nc3ccc(C(F)(F)F)cc3F)C2=O)c(F)c1 [Example 76],8.39,5.68
CC1(C)CN(c2ccc(-c3ccccc3P(C)(C)=O)c(F)c2F)C(=O)[C@@H]1NC(=O)Nc1ccc(C(F)(F)F)cc1F [Example 102],8.77,6.24
CP(C)(=O)c1ccccc1-c1ccc(N2CC[C@@H](NC(=O)Nc3cnc(Cl)cn3)C2=O)c(C2CC2)c1 [Example 62],7.51,6.14
